# Assay results from patent US10238649B2 (AB SCIENCE, priority 2012, dated 2019).
# Legend:
# [1] = tested on: patients with locally advanced, unresectable, or metastatic pancreatic adenocarcinoma; conditions: single agent, randomized trials; cited from earlier work
# [2] = tested on: patients with metastatic pancreatic cancer; conditions: first-line, Conroy et al. 2011; cited from earlier work
# [3] = tested on: patients with unresectable pancreatic cancer; conditions: Moore et al. 2007; cited from earlier work
# [4] = tested on: Ba/F3 cells expressing human or mouse wild-type c-Kit; conditions: read-out: IC50, stem cell factor-induced proliferation and c-Kit tyrosine phosphorylation; cited from earlier work
# [5] = tested on: patients with advanced/metastatic pancreatic cancer; assay: Ancillary pharmacogenomic study of AB07012, overall survival by gene expression predictor factors; assay type: in vivo, human; conditions: full cohort with genomic information (n=119)
# [6] = tested on: Ba/F3 cells expressing PDGFR-α; conditions: read-out: 1050, PDGF-BB-stimulated proliferation and PDGFR-α tyrosine phosphorylation; cited from earlier work
# [7] = target: discoidin domain receptor family member 1 (DDR1) kinase (Homo sapiens, UniProt Q08345); conditions: cited from earlier work
# discoidin domain receptor family member 1 (DDR1) kinase, sequence (Q08345 19-913, species assumed): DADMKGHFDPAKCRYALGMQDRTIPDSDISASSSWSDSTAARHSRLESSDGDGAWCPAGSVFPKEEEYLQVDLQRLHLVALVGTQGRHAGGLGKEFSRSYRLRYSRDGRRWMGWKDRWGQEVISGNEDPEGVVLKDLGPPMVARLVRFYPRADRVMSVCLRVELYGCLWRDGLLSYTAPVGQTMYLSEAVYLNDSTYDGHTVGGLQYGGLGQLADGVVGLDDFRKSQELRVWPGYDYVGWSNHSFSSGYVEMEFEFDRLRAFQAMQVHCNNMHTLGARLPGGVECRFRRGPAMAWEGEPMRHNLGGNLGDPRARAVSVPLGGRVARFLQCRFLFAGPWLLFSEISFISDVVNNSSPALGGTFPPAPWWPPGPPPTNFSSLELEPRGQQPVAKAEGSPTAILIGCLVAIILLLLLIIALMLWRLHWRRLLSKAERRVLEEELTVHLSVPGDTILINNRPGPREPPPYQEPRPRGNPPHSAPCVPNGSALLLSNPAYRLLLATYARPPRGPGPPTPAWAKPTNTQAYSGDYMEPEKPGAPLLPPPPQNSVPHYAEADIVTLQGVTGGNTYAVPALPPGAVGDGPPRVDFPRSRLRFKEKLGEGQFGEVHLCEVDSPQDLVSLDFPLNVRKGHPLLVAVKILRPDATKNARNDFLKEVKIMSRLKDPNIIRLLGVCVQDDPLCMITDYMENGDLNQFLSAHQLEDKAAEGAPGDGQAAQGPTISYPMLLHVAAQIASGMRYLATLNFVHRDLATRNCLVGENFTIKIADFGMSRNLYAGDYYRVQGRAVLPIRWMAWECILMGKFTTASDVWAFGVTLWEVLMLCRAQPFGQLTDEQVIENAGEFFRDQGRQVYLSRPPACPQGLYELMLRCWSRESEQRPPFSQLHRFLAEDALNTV
# [8] = tested on: human cord blood mast cells; conditions: cited from earlier work
compound,measurement,setting,value
"Nc1ccn(C2OC(CO)C(O)C2(F)F)c(=O)n1 (stereo not shown) [gemcitabine, 4-amino-1-[3,3-difluoro-4-hydroxy-5-(hydroxymethyl)tetrahydrofuran-2-yl]-1H-pyrimidin-2-one]",12-month survival,[1],approximately 20%
same,median survival,[1],approximately 6 months
same,objective response rate,[2],9.4%
same,survival (months lived),[2],6.8 months
same,1-year survival rate,[3],17%
same,median OS,[3],5.91 months
Folfirinox,objective response rate,[2],31.6%
same,survival (months lived),[2],11.1 months
"Cc1ccc(NC(=O)c2ccc(CN3CCN(C)CC3)cc2)cc1Nc1nc(-c2cccnc2)cs1 [masitinib, 4-(4-methylpiperazin-1-ylmethyl)-N-[4-methyl-3-(4-pyridin-3ylthiazol-2-ylamino)phenyl]benzamide]",IC50,[4],150 ± 80 nM
same,median OS,[5],7.7 months
same,IC50,[6],300 ± 5 nM
same,inhibition of DDR1 autophosphorylation,[7],pronounced inhibition
same,FcεRI-mediated degranulation of human cord blood mast cells,[8],inhibition
